From patent US10689394B2, “Thieno[2,3-b]pyridine derivative, quinoline derivative, and use thereof” (The University of Tokyo, priority 2016, dated 2020)

Tested on: binding between 122 types of ALS-related mutant SOD1s and Derlin-1
Test: Cell-based co-immunoprecipitation with 122 types of ALS-related mutant SOD1s
Parameters: species or system human
Details: co-immunoprecipitation at cell level, FIG. 2 to FIG. 9
Method: Transfection into the HEK293A cells was carried out using PEI-Max (Polyscience) at a ratio of 3 μL of PEI-Max to 1 μg of plasmid. DMEM was mixed with PEI-Max, and the mixture was then left at rest for 5 minutes. Thereafter, the reaction mixture was added to the plasmid DNA dissolved in DMEM, and the thus obtained mixture was further left at rest for 15 minutes. After seeding, the culture was carried out for 12 to 24 hours, and the resultant was then added to a culture medium of cells, in which the medium had been exchanged with DMEM supplemented only with 10% FBS.
pcDNA3.0-Derlin-1-HA, pcDNA3.0-Flag-SOD1 G93A, and 123 types of other mutants.
After the transfection on a 24-well plate, the cells were cultured for 12 hours or 24 hours, and the obtained cell culture was exchanged with 200 μL of medium. Thereafter, 1% DMSO or various types of compounds having each different concentration were added into the culture. Thirty-six hours or twenty-four hours later, the cells were incubated in the IP lysis buffer (300 μL/well) at 4° C. for 25 minutes, so that the cells were lysed. The cell lysate was centrifuged at 4° C. at 15000 rpm for 10 minutes, and a supernatant was then recovered. To this supernatant, Anti-Flag M2 affinity gel was added in a liquid amount of 20 μL, and they were allowed to react with each other by subjecting the obtained mixture to inversion mixing at 4° C. for 25 minutes. […]

C=CCN(C(=O)c1sc2nc(-c3cccnc3)ccc2c1N)c1ccccc1 [Example 1, N-allyl-3-amino-N-phenyl-6-(3-pyridinyl)thieno[2,3-b]pyridine-2-carboxamide]
inhibition of binding between multiple types of mutant SOD1s and Derlin-1: inhibits the binding between all of the mutant SOD s and Derlin-1
